The assay deals with ICAM-1. Description: Western blot of TNF-α-induced ICAM-1 expression in SV40-HCEC cells. It is filed as cell-based, human. The conditions noted are these: 1-μM secretin. The protocol: Experiments were conducted to set up an in vitro model for dry eye syndrome, using cell cultures of immortalized human cells from the cornea or conjunctiva using the SV40-HCEC corneal cell line of SV40 virus-immortalized corneal cells (12). SV40-HCEC cells were shown using immunofluorescence of anti-oxytocin receptor antibodies to contain oxytocin receptors in the plasma membrane (FIG. 4A, oxytocin receptor fluorescence is in red [top panel]; blue represents nuclear staining with DAPI stain [bottom panel]), consistent with the results showing its presence in rodent conjunctiva and cornea. Moreover, the presence of secretin receptors in SV40HCEC cells was shown using Western blot (FIG. 4B, the presence of secretin receptor migrating at the expected size [arrow]). M: Marker, S: Sample/secretin receptor. The lower band in the sample lane represents degradation product.
A Western blot-based assay was developed to assess for the role of oxytocin and secretin in dry eye syndrome in vitro. The expression of the […] ICAM-1 in SV40-HCEC cells was induced by adding the pro-inflammatory cytokine TNF-α [13]. In vivo, ICAM-1 acts to recruit neutrophils to sites of inflammation, and thus acts as a surrogate for inflammation in vitro.
For orientation: In western blotting, separated proteins are transferred to a membrane and probed.

“secretin: neuropeptide; endocrine hormone of the glucagon family, commercially available as SecreFlo”: the “Reduction of rate of accumulation of ICAM-1” value is recorded as “about two-fold”.

These data come from US20170014487A1, “Method for treating ocular inflammation” (THE TRUSTEES OF COLUMBIA UNIVERSITY IN THE CITY OF NEW YORK, priority 2014, published 2017).
